“And” between values parts separate entries of the source, which are not always exact repeats. Equal entries are not always repeated.
Tests used:
Assay in all cases: Caliper, Mobility shift assay off-chip
PIM1 (human) = PIM1 (human) (UniProt P11309)
MAPKAPK5 (human) = MAPKAPK5 (human) (UniProt Q8IW41)
ROCK1 (human) = ROCK1 (human) (UniProt Q13464)
MAPK12 (human) = MAPK12 (human) (UniProt P53778)
PAK4 (human) = PAK4 (human) (UniProt O96013)
RPS6KA1 KD1 KD2 (human) = RPS6KA1 KD1 KD2 (human) (UniProt Q15418)
CDK2 CCNA2 (human) = CDK2 CCNA2 (human) (UniProt P24941+P20248)
MAPK14 (human) = MAPK14 (human) (UniProt Q16539)
CHEK1 (human) = CHEK1 (human) (UniProt O14757)
EPHA2 (human) = EPHA2 (human) (UniProt P29317)
ZAP70 (human) = ZAP70 (human) (UniProt P43403)
TEK (human) = TEK (human) (UniProt Q02763)
MAPKAPK2 (human) = MAPKAPK2 (human) (UniProt P49137)
EPHA4 (human) = EPHA4 (human) (UniProt P54764)
CSK (human) = CSK (human) (UniProt P41240)
PRKCG (human) = PRKCG (human) (UniProt P05129)
BTK (human) = BTK (human) (UniProt Q06187)
IKBKB (human) = IKBKB (human) (UniProt O14920)
SRC (human) = SRC (human) (UniProt P12931)
FGFR1 (human) = FGFR1 (human) (UniProt P11362)
RIPK2 (human) = RIPK2 (human) (UniProt O43353)
ALK (human) = ALK (human) (UniProt Q9UM73)
PRKCA (human) = PRKCA (human) (UniProt P17252)
KIT (human) = KIT (human) (UniProt P10721)
PRKCI (human) = PRKCI (human) (UniProt P41743)
RPS6KA5 KD1 KD2 (human) = RPS6KA5 KD1 KD2 (human) (UniProt O75582)
RPS6KB1 (human) = RPS6KB1 (human) (UniProt P23443)
PLK3 (human) = PLK3 (human) (UniProt Q9H4B4)
RAF1 (human) = RAF1 (human) (UniProt P04049)
FGFR3 (human) = FGFR3 (human) (UniProt P22607)
AKT1 (human) = AKT1 (human) (UniProt P31749)
MAPK8 (human) = MAPK8 (human) (UniProt P45983)
KDR (human) = KDR (human) (UniProt P35968)
NEK6 (human) = NEK6 (human) (UniProt Q9HC98)
NEK2 (human) = NEK2 (human) (UniProt P51955)
MAPK13 (human) = MAPK13 (human) (UniProt O15264)
MAPK11 (human) = MAPK11 (human) (UniProt Q15759)
MAP3K7 (human) = MAP3K7 (human) (UniProt O43318)
BRSK2 (human) = BRSK2 (human) (UniProt Q8IWQ3)
IGF1R (human) = IGF1R (human) (UniProt P08069)
PIM2 (human) = PIM2 (human) (UniProt Q9P1W9)
PIM2 (human), sequence (Q9P1W9 whole entry, looked up): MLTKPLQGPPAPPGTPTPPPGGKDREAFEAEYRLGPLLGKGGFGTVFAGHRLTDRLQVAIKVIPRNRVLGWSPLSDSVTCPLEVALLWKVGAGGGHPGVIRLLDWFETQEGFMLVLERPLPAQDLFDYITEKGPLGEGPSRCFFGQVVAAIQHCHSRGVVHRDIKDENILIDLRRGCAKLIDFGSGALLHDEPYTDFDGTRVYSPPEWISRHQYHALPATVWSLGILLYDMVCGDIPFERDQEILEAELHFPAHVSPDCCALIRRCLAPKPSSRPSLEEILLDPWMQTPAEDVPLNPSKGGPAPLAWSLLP

KIT (human), sequence (P10721 whole entry, looked up): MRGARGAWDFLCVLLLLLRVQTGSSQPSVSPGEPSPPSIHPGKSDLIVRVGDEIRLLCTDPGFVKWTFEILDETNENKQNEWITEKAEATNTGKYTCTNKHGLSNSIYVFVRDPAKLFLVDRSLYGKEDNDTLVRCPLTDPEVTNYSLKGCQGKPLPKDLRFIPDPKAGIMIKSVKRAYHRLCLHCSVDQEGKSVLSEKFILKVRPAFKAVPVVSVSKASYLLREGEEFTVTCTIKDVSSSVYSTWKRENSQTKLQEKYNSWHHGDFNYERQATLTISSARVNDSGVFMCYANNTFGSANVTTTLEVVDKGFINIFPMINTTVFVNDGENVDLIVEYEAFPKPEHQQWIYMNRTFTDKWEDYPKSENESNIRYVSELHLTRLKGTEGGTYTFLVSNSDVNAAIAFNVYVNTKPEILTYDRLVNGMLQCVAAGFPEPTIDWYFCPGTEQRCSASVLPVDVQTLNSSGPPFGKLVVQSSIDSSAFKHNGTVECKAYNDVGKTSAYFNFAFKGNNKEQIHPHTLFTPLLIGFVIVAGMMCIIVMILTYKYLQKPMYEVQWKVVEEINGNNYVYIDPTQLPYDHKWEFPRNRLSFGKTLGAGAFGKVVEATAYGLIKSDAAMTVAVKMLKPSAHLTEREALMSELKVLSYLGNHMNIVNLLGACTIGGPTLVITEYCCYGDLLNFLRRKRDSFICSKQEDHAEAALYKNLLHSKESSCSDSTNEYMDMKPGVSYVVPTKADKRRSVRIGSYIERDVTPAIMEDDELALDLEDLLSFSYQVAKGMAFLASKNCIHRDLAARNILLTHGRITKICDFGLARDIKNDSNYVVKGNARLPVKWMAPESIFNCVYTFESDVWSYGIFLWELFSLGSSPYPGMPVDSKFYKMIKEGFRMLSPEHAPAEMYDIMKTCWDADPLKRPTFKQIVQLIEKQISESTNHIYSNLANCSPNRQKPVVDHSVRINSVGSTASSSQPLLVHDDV
MAPK14 (human), sequence (Q16539 whole entry, looked up): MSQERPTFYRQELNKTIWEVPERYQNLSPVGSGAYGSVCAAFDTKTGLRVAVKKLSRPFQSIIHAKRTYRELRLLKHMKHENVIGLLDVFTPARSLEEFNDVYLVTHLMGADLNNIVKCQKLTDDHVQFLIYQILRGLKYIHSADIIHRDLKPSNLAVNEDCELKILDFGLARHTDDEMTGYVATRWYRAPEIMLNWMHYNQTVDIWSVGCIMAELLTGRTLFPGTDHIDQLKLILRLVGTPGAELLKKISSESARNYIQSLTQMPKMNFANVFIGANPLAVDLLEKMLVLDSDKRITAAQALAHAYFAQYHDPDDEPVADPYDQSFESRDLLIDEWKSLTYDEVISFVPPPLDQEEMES
MAPK12 (human), sequence (P53778 whole entry, looked up): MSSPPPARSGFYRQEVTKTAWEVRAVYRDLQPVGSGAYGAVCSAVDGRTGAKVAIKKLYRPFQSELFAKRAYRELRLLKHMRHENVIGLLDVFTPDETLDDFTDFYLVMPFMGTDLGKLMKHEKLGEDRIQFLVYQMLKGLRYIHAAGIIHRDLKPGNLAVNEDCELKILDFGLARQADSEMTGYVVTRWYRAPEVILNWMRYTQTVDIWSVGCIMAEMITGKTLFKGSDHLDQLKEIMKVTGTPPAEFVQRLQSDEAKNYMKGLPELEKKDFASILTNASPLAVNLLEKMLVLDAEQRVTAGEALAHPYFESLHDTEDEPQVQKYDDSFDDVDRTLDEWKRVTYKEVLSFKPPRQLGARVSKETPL
NEK2 (human), sequence (P51955 whole entry, looked up): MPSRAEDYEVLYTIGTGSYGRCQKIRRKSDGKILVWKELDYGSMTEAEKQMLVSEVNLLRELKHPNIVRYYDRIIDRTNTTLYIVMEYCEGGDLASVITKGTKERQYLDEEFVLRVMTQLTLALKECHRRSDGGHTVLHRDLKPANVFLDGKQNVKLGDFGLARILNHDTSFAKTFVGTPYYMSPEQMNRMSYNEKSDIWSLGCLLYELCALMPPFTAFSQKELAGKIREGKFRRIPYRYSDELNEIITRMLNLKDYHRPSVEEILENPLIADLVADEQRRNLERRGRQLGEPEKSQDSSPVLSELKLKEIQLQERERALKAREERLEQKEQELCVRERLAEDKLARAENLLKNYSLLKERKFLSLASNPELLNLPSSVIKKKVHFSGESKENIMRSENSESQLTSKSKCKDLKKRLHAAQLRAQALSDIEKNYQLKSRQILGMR
MAPK13 (human), sequence (O15264 whole entry, looked up): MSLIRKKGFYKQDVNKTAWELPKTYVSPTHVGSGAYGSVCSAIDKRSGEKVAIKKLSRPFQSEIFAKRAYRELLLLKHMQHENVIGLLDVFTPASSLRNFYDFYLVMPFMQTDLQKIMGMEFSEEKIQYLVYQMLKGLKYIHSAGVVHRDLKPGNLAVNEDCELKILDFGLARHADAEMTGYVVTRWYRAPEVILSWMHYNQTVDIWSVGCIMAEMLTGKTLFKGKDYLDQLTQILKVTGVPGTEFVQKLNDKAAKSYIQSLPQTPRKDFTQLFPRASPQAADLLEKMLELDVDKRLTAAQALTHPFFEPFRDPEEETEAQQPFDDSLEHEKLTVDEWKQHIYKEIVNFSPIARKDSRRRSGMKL
RPS6KB1 (human), sequence (P23443 whole entry, looked up): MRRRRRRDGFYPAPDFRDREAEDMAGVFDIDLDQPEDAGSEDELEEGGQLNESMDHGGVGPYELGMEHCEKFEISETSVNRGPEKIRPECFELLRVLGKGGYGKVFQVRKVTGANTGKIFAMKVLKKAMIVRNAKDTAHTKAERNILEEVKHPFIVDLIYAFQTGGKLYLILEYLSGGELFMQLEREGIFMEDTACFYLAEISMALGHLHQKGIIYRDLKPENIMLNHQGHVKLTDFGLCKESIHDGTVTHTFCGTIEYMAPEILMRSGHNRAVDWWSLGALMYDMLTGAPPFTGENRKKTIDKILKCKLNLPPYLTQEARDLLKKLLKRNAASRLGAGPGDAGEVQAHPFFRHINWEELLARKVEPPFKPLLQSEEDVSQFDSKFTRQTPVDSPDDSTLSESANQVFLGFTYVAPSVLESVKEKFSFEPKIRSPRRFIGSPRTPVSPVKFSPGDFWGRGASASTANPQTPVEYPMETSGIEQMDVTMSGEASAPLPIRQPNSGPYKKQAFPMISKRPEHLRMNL
PRKCI (human), sequence (P41743 whole entry, looked up): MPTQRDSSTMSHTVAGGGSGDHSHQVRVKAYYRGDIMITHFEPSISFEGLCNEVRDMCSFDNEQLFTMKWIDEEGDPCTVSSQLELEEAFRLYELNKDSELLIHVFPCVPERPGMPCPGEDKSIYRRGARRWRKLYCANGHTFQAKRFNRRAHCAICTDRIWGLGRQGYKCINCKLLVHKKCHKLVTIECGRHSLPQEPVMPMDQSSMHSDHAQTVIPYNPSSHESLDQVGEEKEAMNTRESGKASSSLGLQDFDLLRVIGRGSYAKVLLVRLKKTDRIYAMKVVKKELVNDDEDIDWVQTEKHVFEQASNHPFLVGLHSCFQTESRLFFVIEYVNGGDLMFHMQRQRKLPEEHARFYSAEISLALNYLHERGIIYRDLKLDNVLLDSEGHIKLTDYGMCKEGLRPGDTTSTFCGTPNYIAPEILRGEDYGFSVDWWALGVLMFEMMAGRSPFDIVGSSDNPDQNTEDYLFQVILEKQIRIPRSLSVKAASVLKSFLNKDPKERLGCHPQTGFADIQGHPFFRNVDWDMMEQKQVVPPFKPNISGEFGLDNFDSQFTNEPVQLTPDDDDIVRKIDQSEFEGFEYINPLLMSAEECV
NEK6 (human), sequence (Q9HC98 whole entry, looked up): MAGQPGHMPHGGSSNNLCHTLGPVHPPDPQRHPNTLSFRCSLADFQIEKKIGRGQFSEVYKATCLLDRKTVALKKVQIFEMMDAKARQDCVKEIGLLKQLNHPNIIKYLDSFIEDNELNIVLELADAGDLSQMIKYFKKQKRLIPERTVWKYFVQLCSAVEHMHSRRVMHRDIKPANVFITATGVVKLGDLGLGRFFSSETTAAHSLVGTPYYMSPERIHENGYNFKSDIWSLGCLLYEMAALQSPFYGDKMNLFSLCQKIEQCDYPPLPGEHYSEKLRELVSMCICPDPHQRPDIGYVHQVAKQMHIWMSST
PIM1 (human), sequence (P11309 whole entry, looked up): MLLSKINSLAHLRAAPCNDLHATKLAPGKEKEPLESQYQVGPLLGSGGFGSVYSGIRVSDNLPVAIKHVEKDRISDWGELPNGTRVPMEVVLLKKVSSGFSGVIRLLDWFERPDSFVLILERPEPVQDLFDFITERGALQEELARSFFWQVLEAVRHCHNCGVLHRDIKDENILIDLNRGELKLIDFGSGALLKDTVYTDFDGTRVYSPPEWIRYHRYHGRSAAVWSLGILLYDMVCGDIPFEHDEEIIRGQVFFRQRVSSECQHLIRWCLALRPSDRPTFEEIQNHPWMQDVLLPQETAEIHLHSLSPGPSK
MAPKAPK2 (human), sequence (P49137 whole entry, looked up): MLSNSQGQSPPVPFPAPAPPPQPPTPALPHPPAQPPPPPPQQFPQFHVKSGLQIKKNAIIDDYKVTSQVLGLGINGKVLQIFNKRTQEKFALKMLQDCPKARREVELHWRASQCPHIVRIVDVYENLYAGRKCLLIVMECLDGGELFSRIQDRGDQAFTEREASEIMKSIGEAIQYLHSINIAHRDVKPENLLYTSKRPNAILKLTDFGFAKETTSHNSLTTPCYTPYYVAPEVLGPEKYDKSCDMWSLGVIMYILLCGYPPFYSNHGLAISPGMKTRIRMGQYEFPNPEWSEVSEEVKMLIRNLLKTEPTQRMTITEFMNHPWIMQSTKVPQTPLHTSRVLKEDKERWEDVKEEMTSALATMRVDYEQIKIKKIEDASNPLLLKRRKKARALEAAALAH

## O=C(N[C@@H](COc1ccc2[nH]c(=O)[nH]c2c1)c1ccccc1)c1cccn(Cc2ccc(F)c(F)c2)c1=O
PIM1 (human); compound 10.0 µM
  residual activity: 104%
MAPKAPK5 (human); compound 10.0 µM
  residual activity: 98%
ROCK1 (human); compound 10.0 µM
  residual activity: 97%
MAPK12 (human); compound 10.0 µM
  residual activity: 115%
PAK4 (human); compound 10.0 µM
  residual activity: 105%
RPS6KA1 KD1 KD2 (human); compound 10.0 µM
  residual activity: 107%
CDK2 CCNA2 (human); compound 10.0 µM
  residual activity: 99%
MAPK14 (human); compound 10.0 µM
  residual activity: 107%
CHEK1 (human); compound 10.0 µM
  residual activity: 105%
EPHA2 (human); compound 10.0 µM
  residual activity: 127%
ZAP70 (human); compound 10.0 µM
  residual activity: 100%
TEK (human); compound 10.0 µM
  residual activity: 105%
MAPKAPK2 (human); compound 10.0 µM
  residual activity: 98%
EPHA4 (human); compound 10.0 µM
  residual activity: 101%
CSK (human); compound 10.0 µM
  residual activity: 114%
PRKCG (human); compound 10.0 µM
  residual activity: 104%
BTK (human); compound 10.0 µM
  residual activity: 107%
IKBKB (human); compound 10.0 µM
  residual activity: 100%
SRC (human); compound 10.0 µM
  residual activity: 94% and 101%
FGFR1 (human); compound 10.0 µM
  residual activity: 86%
RIPK2 (human); compound 10.0 µM
  residual activity: 101%
ALK (human); compound 10.0 µM
  residual activity: 116%
PRKCA (human); compound 10.0 µM
  residual activity: 98%
KIT (human); compound 10.0 µM
  residual activity: 107%
PRKCI (human); compound 10.0 µM
  residual activity: 97%
RPS6KA5 KD1 KD2 (human); compound 10.0 µM
  residual activity: 109%
RPS6KB1 (human); compound 10.0 µM
  residual activity: 104%
PLK3 (human); compound 10.0 µM
  residual activity: 96%
RAF1 (human); compound 10.0 µM
  residual activity: 109%
FGFR3 (human); compound 10.0 µM
  residual activity: 122%
AKT1 (human); compound 10.0 µM
  residual activity: 107%
MAPK8 (human); compound 10.0 µM
  residual activity: 125%
KDR (human); compound 10.0 µM
  residual activity: 101%
NEK6 (human); compound 10.0 µM
  residual activity: 99%
NEK2 (human); compound 10.0 µM
  residual activity: 94%
MAPK13 (human); compound 10.0 µM
  residual activity: 114%
MAPK11 (human); compound 10.0 µM
  residual activity: 100%
MAP3K7 (human); compound 10.0 µM
  residual activity: 101%
BRSK2 (human); compound 10.0 µM
  residual activity: 111%
IGF1R (human); compound 10.0 µM
  residual activity: 116%
PIM2 (human); compound 10.0 µM
  residual activity: 100%

## COc1ccc(C#Cc2ccc3ncc4ncn(-c5ccc(CCN)cc5)c4c3c2)cc1
PIM1 (human); compound 10.0 µM
  residual activity: 3%
MAPKAPK5 (human); compound 10.0 µM
  residual activity: 50%
ROCK1 (human); compound 10.0 µM
  residual activity: 46%
MAPK12 (human); compound 10.0 µM
  residual activity: 85%
PAK4 (human); compound 10.0 µM
  residual activity: 106%
RPS6KA1 KD1 KD2 (human); compound 10.0 µM
  residual activity: 13%
CDK2 CCNA2 (human); compound 10.0 µM
  residual activity: 118%
MAPK14 (human); compound 10.0 µM
  residual activity: 72%
CHEK1 (human); compound 10.0 µM
  residual activity: 75%
EPHA2 (human); compound 10.0 µM
  residual activity: 95%
ZAP70 (human); compound 10.0 µM
  residual activity: 99%
TEK (human); compound 10.0 µM
  residual activity: 5%
MAPKAPK2 (human); compound 10.0 µM
  residual activity: 78%
EPHA4 (human); compound 10.0 µM
  residual activity: 77%
CSK (human); compound 10.0 µM
  residual activity: 82%
PRKCG (human); compound 10.0 µM
  residual activity: 88%
BTK (human); compound 10.0 µM
  residual activity: 75%
IKBKB (human); compound 10.0 µM
  residual activity: 39%
SRC (human); compound 10.0 µM
  residual activity: 14%
FGFR1 (human); compound 10.0 µM
  residual activity: 4%
RIPK2 (human); compound 10.0 µM
  residual activity: 78%
ALK (human); compound 10.0 µM
  residual activity: 42%
PRKCA (human); compound 10.0 µM
  residual activity: 94%
KIT (human); compound 10.0 µM
  residual activity: 71%
PRKCI (human); compound 10.0 µM
  residual activity: 107%
RPS6KA5 KD1 KD2 (human); compound 10.0 µM
  residual activity: 39%
RPS6KB1 (human); compound 10.0 µM
  residual activity: 0%
PLK3 (human); compound 10.0 µM
  residual activity: 110%
RAF1 (human); compound 10.0 µM
  residual activity: 94%
FGFR3 (human); compound 10.0 µM
  residual activity: 25%
AKT1 (human); compound 10.0 µM
  residual activity: 25%
MAPK8 (human); compound 10.0 µM
  residual activity: 55%
KDR (human); compound 10.0 µM
  residual activity: 50%
NEK6 (human); compound 10.0 µM
  residual activity: 109%
NEK2 (human); compound 10.0 µM
  residual activity: 80%
MAPK13 (human); compound 10.0 µM
  residual activity: 43%
MAPK11 (human); compound 10.0 µM
  residual activity: 81%
MAP3K7 (human); compound 10.0 µM
  residual activity: 83%
BRSK2 (human); compound 10.0 µM
  residual activity: 57%
IGF1R (human); compound 10.0 µM
  residual activity: 66%
PIM2 (human); compound 10.0 µM
  residual activity: 24%

## O=C(NCCCNc1nc(Nc2cccc(NC(=O)N3CCCC3)c2)ncc1I)c1cccs1
PIM1 (human); compound 1.0 µM
  residual activity: 103%
MAPKAPK5 (human); compound 1.0 µM
  residual activity: 78%
ROCK1 (human); compound 1.0 µM
  residual activity: 96%
MAPK12 (human); compound 1.0 µM
  residual activity: 98%
PAK4 (human); compound 1.0 µM
  residual activity: 99%
RPS6KA1 KD1 KD2 (human); compound 1.0 µM
  residual activity: 83%
CDK2 CCNA2 (human); compound 1.0 µM
  residual activity: 99%
MAPK14 (human); compound 1.0 µM
  residual activity: 108%
CHEK1 (human); compound 1.0 µM
  residual activity: 54%
EPHA2 (human); compound 1.0 µM
  residual activity: 127%
ZAP70 (human); compound 1.0 µM
  residual activity: 120%
TEK (human); compound 1.0 µM
  residual activity: 95%
MAPKAPK2 (human); compound 1.0 µM
  residual activity: 96%
EPHA4 (human); compound 1.0 µM
  residual activity: 100%
CSK (human); compound 1.0 µM
  residual activity: 107%
PRKCG (human); compound 1.0 µM
  residual activity: 86%
BTK (human); compound 1.0 µM
  residual activity: 94%
IKBKB (human); compound 1.0 µM
  residual activity: 105%
SRC (human); compound 1.0 µM
  residual activity: 86%
FGFR1 (human); compound 1.0 µM
  residual activity: 48%
RIPK2 (human); compound 1.0 µM
  residual activity: 111%
ALK (human); compound 1.0 µM
  residual activity: 100%
PRKCA (human); compound 1.0 µM
  residual activity: 98%
KIT (human); compound 1.0 µM
  residual activity: 100%
PRKCI (human); compound 1.0 µM
  residual activity: 121%
RPS6KA5 KD1 KD2 (human); compound 1.0 µM
  residual activity: 93%
RPS6KB1 (human); compound 1.0 µM
  residual activity: 85%
PLK3 (human); compound 1.0 µM
  residual activity: 111%
RAF1 (human); compound 1.0 µM
  residual activity: 94%
FGFR3 (human); compound 1.0 µM
  residual activity: 88%
AKT1 (human); compound 1.0 µM
  residual activity: 103%
MAPK8 (human); compound 1.0 µM
  residual activity: 94%
KDR (human); compound 1.0 µM
  residual activity: 106%
NEK6 (human); compound 1.0 µM
  residual activity: 114%
NEK2 (human); compound 1.0 µM
  residual activity: 93%
MAPK13 (human); compound 1.0 µM
  residual activity: 115%
MAPK11 (human); compound 1.0 µM
  residual activity: 85%
MAP3K7 (human); compound 1.0 µM
  residual activity: 32%
BRSK2 (human); compound 1.0 µM
  residual activity: 81%
IGF1R (human); compound 1.0 µM
  residual activity: 103%
PIM2 (human); compound 1.0 µM
  residual activity: 91%
